According to patent US20090143279A1 (priority 2007, published 2009):
Like-named read-outs stand apart in the source and are kept apart here.

Key:
[1] = tested on: cellular dehydrogenase activity
[2] = tested on: nuOXPHOS transcripts; assay type: cell-based, mouse
[3] = tested on: reactive oxygen species; assay type: cell-based, mouse
[4] = tested on: OXPHOS gene expression; assay type: cell-based, mouse
[5] = tested on: C2C12 myotubes
[6] = tested on: mitochondrial membrane potential; assay type: cell-based, mouse
[7] = tested on: mtOXPHOS transcripts; assay type: cell-based, mouse
[8] = tested on: cytochrome c; assay type: cell-based, mouse
[9] = composite Z-score vs mock-treated (DMSO) wells, Conc 20 μM
[10] = composite Z-score vs DMSO wells, Conc 20 μM
[11] = normalized composite Z-score vs mock-treated (DMSO) wells, Conc 20 μM
[12] = composite Z-score vs DMSO, Conc 20 μM

COc1cc(-c2coc3cc(OCc4ccccc4)c(OC)c(O)c3c2=O)cc(O)c1OC [irigenin, 7-benzyl ether]
MTT [1, 9]: −1.179 | nucOX [2, 9]: −1.386 | ROS [3, 9]: 1.548 | GE-HTS [4, 9]: −1.362 | Viability [5, 9]: −0.334 | ΔΨm [6, 9]: 0.948 | mitoOX [7, 9]: −1.100 | cyt c [8, 9]: −0.617

C[C@@H]([C@H]1OC(C)(C)[C@@H](O)[C@H]1O)[C@@H]1CC[C@]2(C)C3=CC[C@H]4C(C)(C)C(=O)CC[C@]4(C)[C@H]3CC[C@@]12C [odoratone]
MTT [1, 9]: −1.060 | nucOX [2, 9]: −0.988 | ROS [3, 9]: 0.083 | GE-HTS [4, 9]: −0.994 | Viability [5, 9]: 0.542 | ΔΨm [6, 9]: 0.367 | mitoOX [7, 9]: −0.873 | cyt c [8, 9]: 0.707

C=C(C)[C@@H]1[C@H]2OC(=O)[C@@H]1[C@]1(O)C[C@H]3O[C@]34C(=O)O[C@H]2[C@]14C [picrotoxinin]
MTT [1, 10]: −1.611 | nucOX [2, 10]: −0.408 | ROS [3, 10]: 1.094 | GE-HTS [4, 10]: −0.512 | Viability [5, 10]: −1.116 | ΔΨm [6, 10]: −1.064 | mitoOX [7, 10]: −0.551 | cyt c [8, 10]: 0.172

COc1ccccc1-c1cc(=O)c2c(OC)cccc2o1 [5,2′-dimethoxyflavone]
MTT [1, 11]: −0.219 | nucOX [2, 11]: −0.881 | ROS [3, 11]: 0.645 | GE-HTS [4, 11]: −0.862 | Viability [5, 11]: −0.228 | ΔΨm [6, 11]: 1.002 | mitoOX [7, 11]: −0.607 | cyt c [8, 11]: 1.046

COc1ccc(-c2coc3c(OC)c(OC)ccc3c2=O)cc1 [retusin dimethyl ether]
MTT (composite Z-score) [1]: −1.263 | nucOX (composite Z-score) [2]: −0.033 | ROS (composite Z-score) [3]: 0.069 | GE-HTS (composite Z-score) [4]: −0.135 | Viability (composite Z-score) [5]: 0.317 | ΔΨm (composite Z-score) [6]: 0.378 | mitoOX (composite Z-score) [7]: −0.331 | cyt c (composite Z-score) [8]: −0.199

C=C1CCC2C(CC2(C)C)C(=O)CCC1O (centres unmarked) [isokobusone]
MTT [1, 12]: −0.507 | nucOX [2, 12]: −0.813 | ROS [3, 12]: −0.201 | GE-HTS [4, 12]: −0.848 | Viability [5, 12]: −0.090 | ΔΨm [6, 12]: −0.283 | mitoOX [7, 12]: −0.713 | cyt c [8, 12]: 0.480

CC(=O)O[C@H]1C[C@@H](OC(C)=O)C(C)(C)C2CC(=O)[C@]3(C)C(CC[C@@]4(C)[C@H](C(=O)O)OC(=O)C5OC543)[C@]21C (some centres unmarked) [deacetoxy(7)-7-oxokhivorinic acid]
MTT [1, 11]: −1.282 | nucOX [2, 11]: −0.937 | ROS [3, 11]: 2.352 | GE-HTS [4, 11]: −0.919 | Viability [5, 11]: −0.174 | ΔΨm [6, 11]: −0.539 | mitoOX [7, 11]: −0.664 | cyt c [8, 11]: 0.816

C[C@]12CC[C@H]3[C@@H](CC[C@]4(O)C[C@@H](O)CC[C@]34C=O)[C@@]1(O)CC[C@@H]2C1=CC(=O)OC1 [strophanthidin]
MTT [1]: −0.908 | MTT [1, 10]: −0.828 | MTT [1, 11]: −1.573 | nucOX [2]: −0.729 | nucOX [2, 10]: −0.222 | nucOX [2, 11]: −0.525 | ROS [3]: 0.947 | ROS [3, 10]: 1.582 | ROS [3, 11]: 1.036 | GE-HTS [4]: −0.590 | GE-HTS [4, 10]: −0.232 | GE-HTS [4, 11]: −0.789 | Viability [5]: −0.448 | Viability [5, 10]: 0.028 | Viability [5, 11]: −1.016 | ΔΨm [6]: −0.175 | ΔΨm [6, 10]: −1.126 | ΔΨm [6, 11]: −0.481 | mitoOX [7]: −0.190 | mitoOX [7, 10]: −0.231 | mitoOX [7, 11]: −1.094 | cyt c [8]: 0.287 | cyt c [8, 10]: 1.100 | cyt c [8, 11]: 0.687

CC(=O)O[C@@H]1CC(=O)[C@@]2(C)C(CC(=O)[C@]3(C)C2CC[C@@]2(C)[C@H](c4ccoc4)OC(=O)C4OC423)C1(C)C (some centres unmarked) [1,7-dideacetoxy-1,7-dioxokhivorin]
MTT [1, 9]: −0.142 | nucOX [2, 9]: −0.585 | ROS [3, 9]: 0.352 | GE-HTS [4, 9]: −0.558 | Viability [5, 9]: 0.042 | ΔΨm [6, 9]: −0.535 | mitoOX [7, 9]: −0.355 | cyt c [8, 9]: 0.539

COC1=C(O)C(=O)c2c(cc3oc(C(C)=O)c(O)c3c2O)C1=O [rhodocladonic acid]
MTT [1, 12]: −1.057 | nucOX [2, 12]: 0.393 | ROS [3, 12]: 0.733 | GE-HTS [4, 12]: 0.294 | Viability [5, 12]: −0.416 | ΔΨm [6, 12]: 0.068 | mitoOX [7, 12]: 0.072 | cyt c [8, 12]: 1.150

CCOc1nc2cccc(C(=O)OC(C)OC(=O)OC3CCCCC3)c2n1Cc1ccc(-c2ccccc2-c2nn[nH]n2)cc1 (centres unmarked) [candesartan cilextil]
MTT [1, 12]: −1.116 | nucOX [2, 12]: −0.259 | ROS [3, 12]: 1.855 | GE-HTS [4, 12]: −0.432 | Viability [5, 12]: 1.842 | ΔΨm [6, 12]: −0.743 | mitoOX [7, 12]: −0.658 | cyt c [8, 12]: 1.328
